Biological target: Nav 1.7 (Homo sapiens (Human), UniProt Q15858)
Test: in-vitro Nav 1.7 PX (IC50)
Assay type: cell-based
Conditions: not given

Chain of Nav 1.7 (Q15858 whole entry): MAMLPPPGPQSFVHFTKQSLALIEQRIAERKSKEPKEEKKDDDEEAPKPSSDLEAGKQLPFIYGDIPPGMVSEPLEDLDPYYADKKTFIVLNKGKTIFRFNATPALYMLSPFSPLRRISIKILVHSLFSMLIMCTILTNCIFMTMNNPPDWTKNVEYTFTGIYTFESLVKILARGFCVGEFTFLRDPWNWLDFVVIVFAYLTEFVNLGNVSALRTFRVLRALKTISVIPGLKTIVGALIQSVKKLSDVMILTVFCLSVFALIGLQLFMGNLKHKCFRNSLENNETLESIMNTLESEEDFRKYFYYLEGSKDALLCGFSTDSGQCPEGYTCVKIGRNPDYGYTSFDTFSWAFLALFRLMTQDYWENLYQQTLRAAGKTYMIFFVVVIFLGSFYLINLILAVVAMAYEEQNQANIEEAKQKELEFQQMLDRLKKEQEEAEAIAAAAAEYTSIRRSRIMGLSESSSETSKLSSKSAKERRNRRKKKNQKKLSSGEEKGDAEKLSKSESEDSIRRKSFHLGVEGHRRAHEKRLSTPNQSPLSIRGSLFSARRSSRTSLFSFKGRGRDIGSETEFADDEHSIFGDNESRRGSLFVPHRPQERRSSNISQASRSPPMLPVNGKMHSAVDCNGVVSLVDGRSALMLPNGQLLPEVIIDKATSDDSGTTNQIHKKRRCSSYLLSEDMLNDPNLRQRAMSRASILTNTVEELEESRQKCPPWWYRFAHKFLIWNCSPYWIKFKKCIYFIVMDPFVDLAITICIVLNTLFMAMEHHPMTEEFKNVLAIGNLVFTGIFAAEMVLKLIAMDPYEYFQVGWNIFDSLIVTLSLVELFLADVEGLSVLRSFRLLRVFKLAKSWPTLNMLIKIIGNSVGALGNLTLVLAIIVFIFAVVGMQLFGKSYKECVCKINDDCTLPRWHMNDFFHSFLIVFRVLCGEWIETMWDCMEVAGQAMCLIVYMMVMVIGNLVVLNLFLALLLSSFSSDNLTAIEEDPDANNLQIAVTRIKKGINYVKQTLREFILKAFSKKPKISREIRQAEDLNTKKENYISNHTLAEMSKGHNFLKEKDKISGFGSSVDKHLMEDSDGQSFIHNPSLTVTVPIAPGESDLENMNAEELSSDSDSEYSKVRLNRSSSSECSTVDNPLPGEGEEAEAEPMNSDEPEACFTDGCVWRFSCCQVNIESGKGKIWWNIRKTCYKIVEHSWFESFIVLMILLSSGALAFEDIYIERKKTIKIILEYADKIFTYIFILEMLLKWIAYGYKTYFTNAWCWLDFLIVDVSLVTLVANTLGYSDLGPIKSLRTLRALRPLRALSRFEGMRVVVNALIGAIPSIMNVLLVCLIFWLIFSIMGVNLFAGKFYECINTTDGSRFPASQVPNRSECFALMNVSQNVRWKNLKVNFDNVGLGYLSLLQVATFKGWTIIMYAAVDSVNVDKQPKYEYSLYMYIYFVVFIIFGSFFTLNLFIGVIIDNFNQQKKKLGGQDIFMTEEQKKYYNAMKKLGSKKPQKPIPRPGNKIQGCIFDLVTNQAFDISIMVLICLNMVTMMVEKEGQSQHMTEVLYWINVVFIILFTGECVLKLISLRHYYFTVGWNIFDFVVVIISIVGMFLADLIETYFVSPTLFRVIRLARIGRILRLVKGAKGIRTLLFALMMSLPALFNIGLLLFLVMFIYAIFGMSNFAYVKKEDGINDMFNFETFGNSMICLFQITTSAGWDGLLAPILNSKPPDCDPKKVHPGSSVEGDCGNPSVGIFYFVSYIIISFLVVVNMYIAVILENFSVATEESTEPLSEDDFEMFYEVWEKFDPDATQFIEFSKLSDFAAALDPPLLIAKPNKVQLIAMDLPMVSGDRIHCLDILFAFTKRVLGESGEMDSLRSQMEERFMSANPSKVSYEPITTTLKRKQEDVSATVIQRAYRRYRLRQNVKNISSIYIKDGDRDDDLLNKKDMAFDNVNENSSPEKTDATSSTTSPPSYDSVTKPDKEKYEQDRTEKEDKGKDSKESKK

IC50 [nM] | Structure (SMILES)
109 | COc1cc(-c2cccc(OC(C)C)c2)ccc1-n1c(=O)ccc2cc(S(=O)(=O)Nc3cccnn3)ccc21 (atropisomer, axis not shown; (P)) [Example 1207, (P)-1-(3-methoxy-3′-(1-methylethoxy)-4-biphenylyl)-2-oxo-N-3-pyridazinyl-1,2-dihydro-6-quinolinesulfonamide]
258 | COc1cc(-c2cccc(OC(C)C)c2)ccc1-n1c(=O)ccc2cc(S(=O)(=O)Nc3cccc(F)n3)ccc21 (atropisomer, axis not shown; (P)) [Example 1208, (P)-N-(6-fluoro-2-pyridinyl)-1-(3-methoxy-3′-(1-methylethoxy)-4-biphenylyl)-2-oxo-1,2-dihydro-6-quinolinesulfonamide]
75 | COc1cc(-c2cccc(C(F)(F)F)c2)c(F)cc1-n1c(=O)ccc2cc(S(=O)(=O)Nc3cccc(F)n3)ccc21 (atropisomer, axis not shown; (P)) [Example 1209, (P)-1-(2-fluoro-5-methoxy-3′-(trifluoromethyl)-4-biphenylyl)-N-(6-fluoro-2-pyridinyl)-2-oxo-1,2-dihydro-6-quinolinesulfonamide]
2370 | COc1cc(C2CC2)ccc1-n1c(=O)ccc2cc(S(=O)(=O)Nc3ccon3)ccc21 (atropisomer, axis not shown; (P)) [Example 1210, (P)-1-(4-cyclopropyl-2-methoxyphenyl)-N-3-isoxazolyl-2-oxo-1,2-dihydro-6-quinolinesulfonamide]
1140 | COc1cc(C[C@H]2CCOC2)c(F)cc1-n1c(=O)ccc2cc(S(=O)(=O)Nc3ccon3)ccc21 (atropisomer, axis not shown; (P)) [Example 1234, (P)-1-(5-fluoro-2-methoxy-4-((3S)-tetrahydro-3-furanylmethyl)phenyl)-N-3-isoxazolyl-2-oxo-1,2-dihydro-6-quinolinesulfonamide]
2130 | COc1cc(C[C@@H]2CCOC2)c(F)cc1-n1c(=O)ccc2cc(S(=O)(=O)Nc3ccon3)ccc21 (atropisomer, axis not shown; (P)) [Example 1235, (P)-1-(5-fluoro-2-methoxy-4-((3R)-tetrahydro-3-furanylmethyl)phenyl)-N-3-isoxazolyl-2-oxo-1,2-dihydro-6-quinolinesulfonamide]
79 | COc1cc(-c2cccc(C(F)(F)F)c2)ccc1-n1c(=O)ccc2cc(S(=O)(=O)Nc3cccc(F)n3)ccc21 (atropisomer, axis not shown; (P)) [Example 1242, (P)—N-(6-fluoro-2-pyridinyl)-1-(3-methoxy-3′-(trifluoromethyl)-4-biphenylyl)-2-oxo-1,2-dihydro-6-quinolinesulfonamide]
5570 | O=c1ccc2cc(S(=O)(=O)Nc3ccon3)ccc2n1-c1ccc(-c2cccc(F)c2)cc1CC(O)CO (racemic) [Example 327, 1-(3-((2R)-2,3-dihydroxypropyl)-3′-fluoro-4-biphenylyl)-N-3-isoxazolyl-2-oxo-1,2-dihydro-6-quinolinesulfonamide, 1-(3-((2S)-2,3-dihydroxypropyl)-3′-fluoro-4-biphenylyl)-N-3-isoxazolyl-2-oxo-1,2-dihydro-6-quinolinesulfonamide]
22 | COc1ccc(-c2cccc(C(F)(F)F)c2)cc1-n1c(=O)ccc2cc(S(=O)(=O)Nc3ccon3)ccc21 [Example 312, N-3-isoxazolyl-1-(4-methoxy-3′-(trifluoromethyl)-3-biphenylyl)-2-oxo-1,2-dihydro-6-quinolinesulfonamide]
648 | O=c1ccc2cc(S(=O)(=O)Nc3ccon3)ccc2n1-c1ccc(C(F)(F)F)cc1-c1cn[nH]c1 [Example 346, P-1-(2-(1H-pyrazol-4-yl)-4-(trifluoromethyl)phenyl)-N-(isoxazol-3-yl)-2-oxo-1,2-dihydroquinoline-6-sulfonamide]
6600 | O=c1ccc2cc(S(=O)(=O)Nc3ccon3)ccc2n1-c1ccc(C(F)(F)F)cc1-c1cn[nH]c1 [Example 347, M-1-(2-(1H-pyrazol-4-yl)-4-(trifluoromethyl)phenyl)-N-(isoxazol-3-yl)-2-oxo-1,2-dihydroquinoline-6-sulfonamide]
6230 | COc1ccc(-c2ccnn2C)cc1-n1c(=O)ccc2cc(S(=O)(=O)Nc3ccon3)ccc21 [Example 385, N-3-isoxazolyl-1-(2-methoxy-5-(1-methyl-1H-pyrazol-5-yl)phenyl)-2-oxo-1,2-dihydro-6-quinolinesulfonamide]

The remaining lines, values behind:

Structure (SMILES) | IC50 [nM]
COc1nc(C2CC2)c(Cl)cc1-n1c(=O)ccc2cc(S(=O)(=O)Nc3ccon3)ccc21 (atropisomer, axis not shown; (P)) [Example 1230, (P)-1-(5-chloro-6-cyclopropyl-2-methoxy-3-pyridinyl)-N-3-isoxazolyl-2-oxo-1,2-dihydro-6-quinolinesulfonamide] | 472
COc1cc(C#CC2(O)CCCC2)c(F)cc1-n1c(=O)ccc2cc(S(=O)(=O)Nc3ccon3)ccc21 (atropisomer, axis not shown; (P)) [Example 1233, (P)-1-(5-fluoro-4-((1-hydroxycyclopentyl)ethynyl)-2-methoxyphenyl)-N-3-isoxazolyl-2-oxo-1,2-dihydro-6-quinolinesulfonamide] | 631
COc1cc(C#CC2(F)CCCC2)c(F)cc1-n1c(=O)ccc2cc(S(=O)(=O)Nc3cccnn3)ccc21 (atropisomer, axis not shown; (P)) [Example 1238, (P)-1-(5-fluoro-4-((1-fluorocyclopentyl)ethynyl)-2-methoxyphenyl)-2-oxo-N-3-pyridazinyl-1,2-dihydro-6-quinolinesulfonamide] | 94
COc1cc(C#CC2CCCC2)ccc1-n1c(=O)ccc2cc(S(=O)(=O)Nc3cccnn3)ccc21 (atropisomer, axis not shown; (P)) [Example 1239, (P)-1-(4-(cyclopentylethynyl)-2-methoxyphenyl)-2-oxo-N-3-pyridazinyl-1,2-dihydro-6-quinolinesulfonamide] | 113
COc1nc(C#CC2CCCC2)c(Cl)cc1-n1c(=O)ccc2cc(S(=O)(=O)Nc3cccnn3)ccc21 (atropisomer, axis not shown; (P)) [Example 1240, (P)-1-(5-chloro-6-(cyclopentylethynyl)-2-methoxy-3-pyridinyl)-2-oxo-N-3-pyridazinyl-1,2-dihydro-6-quinolinesulfonamide] | 124
CO[C@H]1CCCC[C@@H]1n1c(=O)ccc2cc(S(=O)(=O)Nc3ncns3)ccc21 (racemic) [Example 1145, (±)-1-((1S,2S)-2-methoxycyclohexyl)-2-oxo-N-1,2,4-thiadiazol-5-yl-1,2-dihydro-6-quinolinesulfonamide] | 471
COc1cc(-c2cccc(F)c2)c(Cl)cc1-n1c(=O)cc(C)c2cc(S(=O)(=O)Nc3ccon3)ccc21 [Example 348, P-1-(2-chloro-3′-fluoro-5-methoxy-[1,1′-biphenyl]-4-yl)-N-(isoxazol-3-yl)-4-methyl-2-oxo-1,2-dihydroquinoline-6-sulfonamide] | 159
COc1cc(-c2cccc(F)c2)c(Cl)cc1-n1c(=O)cc(C)c2cc(S(=O)(=O)Nc3ccon3)ccc21 [Example 349, M-1-(2-chloro-3′-fluoro-5-methoxy-[1,1′-biphenyl]-4-yl)-N-(isoxazol-3-yl)-4-methyl-2-oxo-1,2-dihydroquinoline-6-sulfonamide] | 10600
COc1cc(-c2cccc(Cl)c2)ccc1-n1c(=O)ccc2cc(S(=O)(=O)Nc3ccon3)ccc21 [Example 350, P-1-(3′-chloro-3-methoxy-[1,1′-biphenyl]-4-yl)-N-(isoxazol-3-yl)-2-oxo-1,2-dihydroquinoline-6-sulfonamide] | 26
COc1cc(-c2cccc(Cl)c2)ccc1-n1c(=O)ccc2cc(S(=O)(=O)Nc3ccon3)ccc21 [Example 351, M-1-(3′-chloro-3-methoxy-[1,1′-biphenyl]-4-yl)-N-(isoxazol-3-yl)-2-oxo-1,2-dihydroquinoline-6-sulfonamide] | 5520
N#CCOc1cc(-c2cccc(F)c2)c(F)cc1-n1c(=O)ccc2cc(S(=O)(=O)Nc3ccon3)ccc21 [Example 387, 1-(5-(cyanomethoxy)-2,3′-difluoro-[1,1′-biphenyl]-4-yl)-N-(isoxazol-3-yl)-2-oxo-1,2-dihydroquinoline-6-sulfonamide] | 89

Same assay, conditions: in-vitro Nav 1.7 PX data

IC50 [nM] | Structure (SMILES)
24 | CCOc1cccc(-c2ccc(-n3c(=O)ccc4cc(S(=O)(=O)Nc5ccon5)ccc43)c(OC)c2)c1 [631/779, 1-(3′-ethoxy-3-methoxy-4-biphenylyl)-N-3-isoxazolyl-2-oxo-1,2-dihydro-6-quinolinesulfonamide]
825 | COc1nc(OCC2CC2)c(Cl)cc1-n1c(=O)ccc2cc(S(=O)(=O)Nc3ccon3)ccc21 [638/819, 1-(5-chloro-6-(cyclopropylmethoxy)-2-methoxy-3-pyridinyl)-N-3-isoxazolyl-2-oxo-1,2-dihydro-6-quinolinesulfonamide]
38 | COc1nc(C2CC2)c(Cl)cc1-n1c(=O)ccc2cc(S(=O)(=O)Nc3ccon3)ccc21 [640/830, 1-(5-chloro-6-cyclopropyl-2-methoxy-3-pyridinyl)-N-3-isoxazolyl-2-oxo-1,2-dihydro-6-quinolinesulfonamide]

Structure (SMILES) | IC50 [nM]
COc1cc(-c2ccc(Cl)cc2)c(F)cc1-n1c(=O)ccc2cc(S(=O)(=O)Nc3ccon3)ccc21 [634/675, 1-(4′-chloro-2-fluoro-5-methoxy-4-biphenylyl)-N-3-isoxazolyl-2-oxo-1,2-dihydro-6-quinolinesulfonamide] | 13

Same assay, conditions: in-vitro PatchXpress (PX)

IC50 [nM] | Structure (SMILES)
168 | COc1nc(-c2cccc(F)c2)c(Cl)cc1-n1c(=O)ccc2cc(S(=O)(=O)Nc3ccon3)ccc21 [Example 341, 1-(5-chloro-6-(3-fluorophenyl)-2-methoxypyridin-3-yl)-N-(isoxazol-3-yl)-2-oxo-1,2-dihydroquinoline-6-sulfonamide]
1640 | COc1nc(N2CC(F)(F)C2)c(Cl)cc1-n1c(=O)ccc2cc(S(=O)(=O)Nc3ccon3)ccc21 [Example 342, 1-(5-chloro-6-(3,3-difluoroazetidin-1-yl)-2-methoxypyridin-3-yl)-N-(isoxazol-3-yl)-2-oxo-1,2-dihydroquinoline-6-sulfonamide]
4300 | COc1cc(-c2cccnc2)c(F)cc1-n1c(=O)ccc2cc(S(=O)(=O)Nc3ccon3)ccc21 [Example 404, 1-(5-fluoro-2-methoxy-4-(3-pyridinyl)phenyl)-N-3-isoxazolyl-2-oxo-1,2-dihydro-6-quinolinesulfonamide]

— patent US9212182B2, “Bicyclic sulfonamide compounds as sodium channel inhibitors” (AMGEN INC., priority 2013, dated 2015)
